Values joined by “and” are separate entries in the source; they are usually repeats but may differ in a detail not shown here. Identical values can stand only once. Like-named read-outs stand apart in the source and are kept apart here.
Experiments:
PHD1 (EGLN2) = PHD1 (EGLN2) (Homo sapiens (Human), UniProt Q96KS0); assay: HIF-PH assay (14CO2 capture), PHD1 enzyme inhibition; type: biochemical
Excerpt: (§1) Ketoglutaric acid α-[1-^14C]-sodium salt, alpha-ketoglutaric acid sodium salt, and HPLC purified peptide may be obtained from commercial sources, e.g., Perkin-Elmer (Wellesley Mass.), Sigma-Aldrich, and SynPep Corp. (Dublin Calif.), respectively. Peptides for use in the assay may be fragments of HIFα as described above or as disclosed in International Publication WO 2005/118836, incorporated by reference herein. HIF-pH, e.g., PHD1 (EGLN2) or PHD2 (EGLN1), can be expressed in, e.g., insect Hi5 cells, and partially purified, e.g., through a SP ion exchange chromatography column. Enzyme activity is determined by capturing ^14CO2 using an assay described by Kivirikko and Myllyla (1982, Methods Enzymol. 82:245-304). Assay reactions contain 50 mM HEPES (pH 7.4), 100 μM α-ketoglutaric acid sodium salt, 0.30 mCi/mL ketoglutaric acid α-[1-^14C]-sodium salt, 40 μM FeSO4, 1 mM ascorbate, 1541.8 units/mL Catalase, with or without 50 μM peptide substrate and various concentrations of compound of the invention. Reactions are initiated by addition of HIF-PH enzyme.
(§2) The peptide-dependent percent turnover is calculated by subtracting percent turnover in the absence of peptide from percent turnover in the presence of substrate peptide. Percent inhibition and IC50 are calculated using peptide-dependent percent turnover at given inhibitor concentrations. Calculation of IC50 values for each inhibitor is conducted using GraFit software (Erithacus Software Ltd., Surrey UK).
(§3) The PHD2/PHD1 is the ratio of the IC50 of the compound for each enzyme.

PHD2 (EGLN1) = PHD2 (EGLN1) (Homo sapiens (Human), UniProt Q9GZT9); assay: HIF-PH assay (14CO2 capture), PHD2 enzyme inhibition; type: biochemical; settings: Table 1
Excerpt: as §1, §2, §3

[1] = Table 1, individual measurement, read-out: IC50 (μM) PHD1
[2] = Table 1, ratio of the IC50 of the compound for each enzyme
[3] = individual measurement, read-out: IC50 (μM) PHD2
[4] = Table 2 comparative data, IC50 PHD2/IC50 PHD1

PHD2 (EGLN1), sequence (Q9GZT9 whole entry): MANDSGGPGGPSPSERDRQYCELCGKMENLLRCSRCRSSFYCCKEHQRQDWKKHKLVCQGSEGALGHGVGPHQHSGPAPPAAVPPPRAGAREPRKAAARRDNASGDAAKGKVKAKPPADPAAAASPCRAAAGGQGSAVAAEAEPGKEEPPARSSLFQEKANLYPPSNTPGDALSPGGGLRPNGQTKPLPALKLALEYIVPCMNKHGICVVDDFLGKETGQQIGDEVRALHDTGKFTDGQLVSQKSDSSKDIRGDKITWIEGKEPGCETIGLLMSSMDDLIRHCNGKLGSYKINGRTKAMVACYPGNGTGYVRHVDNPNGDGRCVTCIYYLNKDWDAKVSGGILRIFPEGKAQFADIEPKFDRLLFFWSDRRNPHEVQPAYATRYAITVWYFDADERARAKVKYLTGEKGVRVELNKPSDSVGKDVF
PHD1 (EGLN2), sequence (Q96KS0 whole entry, the tested form may be a part): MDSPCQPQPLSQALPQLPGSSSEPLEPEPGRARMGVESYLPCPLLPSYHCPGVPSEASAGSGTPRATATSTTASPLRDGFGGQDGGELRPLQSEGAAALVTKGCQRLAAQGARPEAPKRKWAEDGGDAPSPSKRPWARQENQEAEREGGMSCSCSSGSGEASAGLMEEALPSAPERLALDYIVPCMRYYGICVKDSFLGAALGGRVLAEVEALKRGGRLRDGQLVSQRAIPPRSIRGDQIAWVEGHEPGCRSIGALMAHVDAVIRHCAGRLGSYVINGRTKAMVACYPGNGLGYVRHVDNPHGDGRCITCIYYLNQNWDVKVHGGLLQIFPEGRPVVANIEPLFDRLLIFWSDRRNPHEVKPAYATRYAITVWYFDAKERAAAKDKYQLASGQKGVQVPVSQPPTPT

Row | IC50 (PHD1 (EGLN2); [1]) | PHD2/PHD1 (PHD1 (EGLN2); [2]) | IC50 (PHD2 (EGLN1); [3]) | IC50 (PHD1 (EGLN2); Table 1, average of multiple independent measurements, read-out: IC50 (μM) PHD1 avg.) | PHD2/PHD1 avg. (PHD1 (EGLN2); Table 1, average of the ratios of multiple independent measurements) | IC50 (PHD2 (EGLN1); average of multiple independent measurements, read-out: IC50 (μM) PHD2 avg.) | PHD2/PHD1 (PHD1 (EGLN2); [4]) | Structure (SMILES)
1 | 1.41 µM | 26 | 36.7 µM |  |  |  |  | N#Cc1nc(C(=O)NCC[C@H](N)C(=O)O)c(O)c2ccc(Oc3ccccc3)cc12 [Compound 45, (S)-2-Amino-4-(1-cyano-4-hydroxy-7-phenoxyisoquinoline-3-carboxamido)butanoic acid]
2 | 0.29 µM | 19 | 5.55 µM |  |  |  |  | CC(C)(CNC(=O)c1nc(C#N)c2cc(Oc3ccc(F)cc3Cl)ccc2c1O)C(=O)O [Compound 99, 3-{[7-(2-Chloro-4-fluoro-phenoxy)-1-cyano-4-hydroxy-isoquinoline-3-carbonyl]-amino}-2,2-dimethyl-propionic acid]
3 | 0.16 µM | 15 | 2.4 µM |  |  |  |  | C[C@@H](CNC(=O)c1nc(C#N)c2cc(Oc3ccccc3)ccc2c1O)C(=O)O [Compound 93, 3-[(1-Cyano-4-hydroxy-7-phenoxy-isoquinoline-3-carbonyl)-amino]-2-(S)-methyl-propionic acid]
4 | 5.93 µM | 10 | 56.6 µM |  |  |  |  | N#Cc1nc(C(=O)NCC2(CC(=O)O)CCCCC2)c(O)c2ccc(Oc3ccccc3)cc12 [Compound 36, (1-{[(1-Cyano-4-hydroxy-7-phenoxy-isoquinoline-3-carbonyl)-amino]-methyl}-cyclohexyl)-acetic acid]
5 | 2.75 µM | 22 | 61.7 µM |  |  |  |  | O=C(O)CCCCNC(=O)c1ncc2cc(Oc3ccccc3)ccc2c1O [Compound 5, 5-[(4-Hydroxy-7-phenoxy-isoquinoline-3-carbonyl)-amino]-pentanoic acid]
6 | 4.91 µM | 8 | 39.6 µM |  |  |  |  | O=C(O)CCNC(=O)c1ncc2cc(NC(=O)NC3CCCCC3)ccc2c1O [Compound 130, 3-{[7-(3-Cyclohexyl-ureido)-4-hydroxy-isoquinoline-3-carbonyl]-amino}-propionic acid]
7 | 18.6 µM | 5 | 101 µM |  |  |  |  | O=C(O)CCNC(=O)c1nc(C(F)(F)F)c2cc(Oc3ccccc3)ccc2c1O [Compound 145, 3-[(4-Hydroxy-7-phenoxy-1-trifluoromethyl-isoquinoline-3-carbonyl)-amino]-propionic acid]
8 | 6.4 µM | 5 | 31.7 µM |  |  |  |  | O=C(O)CCNC(=O)c1nc(-c2ccccc2)c2cc(Oc3ccccc3)ccc2c1O [Compound 144, 3-[(4-Hydroxy-7-phenoxy-1-phenyl-isoquinoline-3-carbonyl)-amino]-propionic acid]
9 | 1.81 µM | 6.1 | 11 µM |  |  |  |  | CN(C)C(=O)N[C@H](CCNC(=O)c1nc(C#N)c2cc(Oc3ccccc3)ccc2c1O)C(=O)O [Compound 54, (R)-4-(1-Cyano-4-hydroxy-7-phenoxyisoquinoline-3-carboxamido)-2-(3,3-dimethylureido)butanoic acid]
10 | 0.85 µM | 7 | 6.06 µM |  |  |  |  | O=C(O)CCNC(=O)c1ncc2cc(NC(=O)NCc3ccccc3)ccc2c1O [Compound 133, 3-{[7-(3-Benzyl-ureido)-4-hydroxy-isoquinoline-3-carbonyl]-amino}-propionic acid]
11 | 0.17 µM | 9 | 1.62 µM |  |  |  |  | N#Cc1nc(C(=O)NCC2(C(=O)O)CC2)c(O)c2ccc(Oc3ccccc3)cc12 [Compound 12, 1-{[(1-Cyano-4-hydroxy-7-phenoxy-isoquinoline-3-carbonyl)-amino]-methyl}-cyclopropanecarboxylic acid]
12 | 0.11 µM | 15 | 1.69 µM |  |  |  |  | N#Cc1nc(C(=O)NC[C@H](O)C(=O)O)c(O)c2ccc(Oc3ccccc3)cc12 [Compound 79, 3-[(1-Cyano-4-hydroxy-7-phenoxy-isoquinoline-3-carbonyl)-amino]-2-(S)-hydroxy-propionic acid]
13 | 0.54 µM | 9 | 5.1 µM |  |  |  |  | CCC(CNC(=O)c1nc(C#N)c2cc(Oc3ccccc3)ccc2c1O)C(=O)O (stereo not drawn) [Compound 57, 2-((1-Cyano-4-hydroxy-7-phenoxyisoquinoline-3-carboxamido)methyl)butanoic acid]
14 | 2.46 µM and 2.28 µM | 4 and 6 | 9.28 µM and 14.4 µM | 2.37 µM | 5 avg. | 11.8 µM |  | N#Cc1nc(C(=O)N[C@H](CCc2ccccc2)CC(=O)O)c(O)c2ccc(Oc3ccccc3)cc12 [Compound 107, 3-(R)-[(1-Cyano-4-hydroxy-7-phenoxy-isoquinoline-3-carbonyl)-amino]-5-phenyl-pentanoic acid]
15 | 4.35 µM | 13 | 55.1 µM |  |  |  |  | CC(C)(CC(=O)O)NC(=O)c1nc(C#N)c2cc(OCc3ccccc3)ccc2c1O [Compound 152, 3-[(7-Benzyloxy-1-cyano-4-hydroxy-isoquinoline-3-carbonyl)-amino]-3-methyl-butyric acid]
16 | 3.97 µM | 5 | 20.9 µM |  |  |  |  | N#Cc1nc(C(=O)NC(CC(=O)O)c2ccc(Cl)cc2)c(O)c2ccc(Oc3ccccc3)cc12 (stereo not drawn) [Compound 173, 3-(4-Chloro-phenyl)-3-[(1-cyano-4-hydroxy-7-phenoxy-isoquinoline-3-carbonyl)-amino]-propionic acid]
17 | 5.65 µM | 35 | 200 µM |  |  |  |  | CC(C)(CNC(=O)c1nc(C#N)c2cc(NC(=O)c3ccc(F)cc3)ccc2c1O)C(=O)O [Compound 139, 3-{[1-cyano-7-(4-Fluoro-benzoylamino)-4-hydroxy-isoquinoline-3-carbonyl]-amino}-2,2-dimethyl-propionic acid]
18 | 1.3 µM | 5 | 7.15 µM |  |  |  |  | N#Cc1nc(C(=O)NCC2(C(=O)O)CCC2)c(O)c2ccc(Oc3cccnc3)cc12 [Compound 28, 1-({[1-Cyano-4-hydroxy-7-(pyridin-3-yloxy)-isoquinoline-3-carbonyl]-amino}-methyl)-cyclobutanecarboxylic acid]
19 | 0.23 µM | 12 | 2.83 µM |  |  |  |  | N#Cc1nc(C(=O)NC[C@@H](O)CC(=O)O)c(O)c2ccc(Oc3ccccc3)cc12 [Compound 35, (S)-4-(1-Cyano-4-hydroxy-7-phenoxyisoquinoline-3-carboxamido)-3-hydroxybutanoic acid]
20 | 1.51 µM | 19 | 28.1 µM |  |  |  |  | N#Cc1nc(C(=O)NC(CC(=O)O)c2cccc(Cl)c2)c(O)c2ccc(Oc3ccccc3)cc12 (stereo not drawn) [Compound 165, 3-(3-Chloro-phenyl)-3-[(1-cyano-4-hydroxy-7-phenoxy-isoquinoline-3-carbonyl)-amino]-propionic acid]
21 |  | 23 |  |  |  |  |  | CC(C)(CC(=O)O)NC(=O)c1nc(C#N)c2cc(Oc3ccccc3)ccc2c1O [Compound 82, 3-[(1-Cyano-4-hydroxy-7-phenoxy-isoquinoline-3-carbonyl)-amino]-3-methyl-butyric acid]
22 | 3.43 µM |  |  |  |  |  |  | N#Cc1nc(C(=O)N[C@H](CC(=O)O)Cc2ccccc2)c(O)c2ccc(Oc3ccccc3)cc12 [Compound 67, (S)-3-[(1-Cyano-4-hydroxy-7-phenoxy-isoquinoline-3-carbonyl)-amino]-4-phenyl-butyric acid]
23 |  |  |  |  |  |  | 3 | O=C(O)CNC(=O)c1ncc2cc(Oc3cccnc3)ccc2c1O [U.S. Pat. No. 7,323,475; Example D-67, 2-{[4-Hydroxy-7-(pyridin-3-yloxy)-isoquinoline-3-carbonyl]-amino}-acetic acid, reference compound]
24 | 2.27 µM |  |  |  |  |  |  | N#Cc1nc(C(=O)N[C@@H](CC(=O)O)Cc2ccccc2)c(O)c2ccc(Oc3ccccc3)cc12 [Compound 68, (R)-3-[(1-Cyano-4-hydroxy-7-phenoxy-isoquinoline-3-carbonyl)-amino]-4-phenyl-butyric acid]
25 |  |  |  |  |  |  | 0.4 | N#Cc1nc(C(=O)NCC(=O)O)c(O)c2ccc(Oc3ccccc3)cc12 [U.S. Pat. No. 7,928,120; Example 3, 2-[(1-Cyano-4-hydroxy-7-phenoxy-isoquinoline-3-carbonyl)-amino]-acetic acid, reference compound]
26 |  |  |  |  |  |  | 1.5 | O=C(O)CNC(=O)c1ncc2cc(Oc3ccccc3)ccc2c1O [U.S. Pat. No. 7,323,475; Example D-7, 2-[(4-Hydroxy-7-phenoxy-isoquinoline-3-carbonyl)-amino]-acetic acid, reference compound]

Row | Structure (SMILES) | IC50 (PHD1 (EGLN2); [1]) | PHD2/PHD1 (PHD1 (EGLN2); [2]) | IC50 (PHD2 (EGLN1); [3]) | IC50 (PHD1 (EGLN2); Table 1, average of multiple independent measurements, read-out: IC50 (μM) PHD1 avg.) | PHD2/PHD1 avg. (PHD1 (EGLN2); Table 1, average of the ratios of multiple independent measurements) | IC50 (PHD2 (EGLN1); average of multiple independent measurements, read-out: IC50 (μM) PHD2 avg.) | PHD2/PHD1 (PHD1 (EGLN2); [4])
27 | CC(C)(C)OC(=O)N[C@@H](CNC(=O)c1nc(C#N)c2cc(Oc3ccccc3)ccc2c1O)C(=O)O [Compound 85, 2-(S)-tert-Butoxycarbonylamino-3-[(1-cyano-4-hydroxy-7-phenoxy-isoquinoline-3-carbonyl)-amino]-propionic acid] | 19.1 µM | 6 | 112 µM |  |  |  | 

Reference: patent US9409892B2, “4-hydroxy-isoquinoline compounds as HIF hydroxylase inhibitors” (FIBROGEN, INC., priority 2012, dated 2016)
